Experimental data taken from BindingDB's records for doi:10.1021/jm021113r (University of Camerino, 2003).

Target: Nischarin / imidazoline I1 receptor (Rattus norvegicus)
Test: Displacement of [125I]p-iodoclonidine from imidazoline receptor I-1 in rat pheochromocytoma cells

## C[C@H](CC1=NCCN1)c1ccccc1
  Ki: 0.589 µM

## C[C@@H](CC1=NCCN1)c1ccccc1
  Ki: 7.24 µM

## CC(Oc1ccccc1)C1=NCCN1 (stereo not given)
  Ki: 0.309 µM

## c1ccc(CCC2=NCCN2)cc1 [2-Phenethyl-4,5-dihydro-1H-imidazole]
  Ki: 3.71 µM

## CC(CC1=NCCN1)c1ccccc1 (stereo not given)
  Ki: 6.03 µM
